Experiments:
L929 fibroblasts = assay: Cytotoxicity (MTT cell viability) on L929 fibroblasts; assay type: cell-based; settings: 1.0 mg/mL, 24 h incubation
Procedure: For the biocompatibility analysis, L929 fibroblasts were cultured in an air-humidified incubator (5% CO2 atmosphere) in DMEM supplemented with 10% fetal bovine serum (FBS) at up to 70% cell confluency. The cytotoxicity analysis of CD-based materials was performed by MTT assay which determines the metabolic activity of living cells.
The L929 fibroblast cell suspension was adjusted to a density of 5×10^5 cells mL^−1 and gently homogenized. Then, 100 µL of this cell suspension was seeded onto wells on a 96-well plate. The well-plate was incubated at 37° C. under 5% CO2 in an air-humidified incubator for 24 h. After adherence of the fibroblasts, the culture medium was removed from the wells and 100 μL of CD-based particle suspension in culture medium DMEM at different concentrations between 50 and 1000 μg/mL was added to the cells. The plate was incubated at 37° C. under 5% CO2 in an air-humidified incubator for 24 h more. At the end of the incubation, the medium was removed from the wells, the cells were washed with phosphate-buffered saline solution (PBS) two times. After this step, 100 μL of MTT (Tetrazolium dye) at 0.5 mg/mL concentration was added to each well. The plate was incubated at room temperature in the dark for 4 h. Then, MTT solution was removed from the wells and 200 μL of DMSO was placed into the wells to dissolve the blue formazan crystals. Finally, the absorbance values were measured at 590 nm with a plate reader (Thermo Scientific™ Multiskan™). The absorbance value of control group was accepted as 100% viability and the decrease in cell viability % was estimated based on the absorbance values of the wells treated with CD-based materials by the following equation, Cell viability
Where Amaterial is the absorbance value of the cells interacting with CD-based materials and Acontrol is the absorbance value of the untreated cells as control. All assays were carried out in triplicate and the results are given with standard deviations.

Human blood = assay: Blood clotting assay; settings: 1 mg/mL
Procedure: Hemolysis and blood clotting assays were performed to investigate the blood compatibility of linear α-CD, β-CD, and γ-CD and their particle forms. Human blood was obtained from healthy volunteers and approved by the Clinical Research Ethics Committee of Canakkale Onsekiz Mart University (2011-KAEK-27/2022-2200063689) and placed into tubes containing EDTA. Before the analysis, all solutions were preheated to 37° C.
For the blood clotting assay, 64 μL of 0.2 M CaCl2 aqueous solution was mixed with 810 μL of blood containing EDTA and immediately 270 μL of this blood was covered with 10 mg of linear CD or CD particle. After 10 min, 10 mL of DI water was slowly added into the tubes and centrifuged at 100 g for 1 minute. Then 10 mL of supernatant solution containing non-clotting blood was taken from the tube and diluted with 40 mL of DI water. In the separation tube, 250 μL of the blood containing EDTA was dispersed in 50 mL of DI water as a control. The blood solution was incubated at 37.5° C. in a water bath for 1 h and then, the absorbance value of the supernatant was measured at 542 nm by using UV-Vis spectroscopy. The blood clotting index of the linear CD or CD particles was evaluated from the following equation.
Where Amaterial is the absorbance value of the blood solution interacted with the CD-based materials and Acontol is the absorbance value of the blood solution without the CD-based materials as a control. All assays were carried out in triplicate and the results are given with standard deviations.

[1] = Bisphenol A or curcumin loading into p(CD) particles (adsorption); assay type: physicochemical; settings: for absorbed BPA: guest BPA; for absorbed CUR: guest CUR
Procedure: Then, BPA-loaded CD-based particles were washed with ethanol-water (1:1) mixture one time by centrifugation at 10 000 rpm for 10 min. The BPA loaded CD-based particles were dried by freeze dryer for 48 h. Similarly, curcumin (CUR) was loaded into p(α-CD), p(β-CD), and p(γ-CD) particles by using the same procedure as described above. […] The CUR-loaded p(CD) materials were dried by freeze dryer for 48 h. The absorbance value of the BPA/CUR solutions before and after the loading processes were measured by using UV-Vis spectroscopy (SP-UV300SRB, Spectrum, China) at 275 nm and 425 nm for BPA and CUR, respectively against the previously constructed corresponding calibration curves for BPA and CUR prepared in ethanol-water mixtures. The ethanol-water solution was prepared at 1:7 and 3:2 volume ratios for BPA and CUR, respectively.

Row | Structure (SMILES) | cell viability (L929 fibroblasts) | blood clotting index (Human blood) | absorbed BPA [1] | absorbed CUR [1]
1 | OCC1OC2OC3C(CO)OC(OC4C(CO)OC(OC5C(CO)OC(OC6C(CO)OC(OC7C(CO)OC(OC8C(CO)OC(OC9C(CO)OC(OC1C(O)C2O)C(O)C9O)C(O)C8O)C(O)C7O)C(O)C6O)C(O)C5O)C(O)C4O)C(O)C3O (stereo not drawn) [γ-CD, γ-cyclodextrin] | 95±14% | 98.4±0.7% | 0.222 mmol/mmol | 0.416 mmol/mmol
2 | OCC1OC2OC3C(CO)OC(OC4C(CO)OC(OC5C(CO)OC(OC6C(CO)OC(OC7C(CO)OC(OC8C(CO)OC(OC1C(O)C2O)C(O)C8O)C(O)C7O)C(O)C6O)C(O)C5O)C(O)C4O)C(O)C3O (stereo not drawn) [β-CD, β-cyclodextrin] | 89±14% | 92.3±2.3% | 0.279 mmol/mmol | 0.398 mmol/mmol
3 | OCC1OC2OC3C(CO)OC(OC4C(CO)OC(OC5C(CO)OC(OC6C(CO)OC(OC7C(CO)OC(OC1C(O)C2O)C(O)C7O)C(O)C6O)C(O)C5O)C(O)C4O)C(O)C3O (stereo not drawn) [α-CD, α-cyclodextrin] | 90±7% | 93.6±2.2% | 0.158 mmol/mmol | 0.482 mmol/mmol

— patent US20260166175A1, “FABRICATION OF CYCLODEXTRIN PARTICLES AND CRYOGELS AND METHODS OF USING AND MAKING THEREOF” (University of South Florida, priority 2022, published 2026)
